From article PMC10683025, “Discovery of a Hydroxylamine-Based Brain-Penetrant EGFR Inhibitor for Metastatic Non-Small-Cell Lung Cancer” (Journal of Medicinal Chemistry, 2023)
Read-outs that look alike come from different tables or passages of the source.

Assays:
ERBB2 (HER2) = biological target: T1, ERBB2 (HER2) (Homo sapiens, UniProt P04626); experiment: KINOMEScan; format: binding; conditions: read-out: Percent Control
T1 construct: purchased Eurofins DiscoverX (KINOMEScan service)
Description: (§1) Percent control was mapped onto the kinome tree using TREEspot.

TA1535 = test system: TA1535; parameters: species or system Salmonella
WNK2 = biological target: T2, WNK2 (Homo sapiens, UniProt Q9Y3S1); experiment: KINOMEScan; format: binding; conditions: WNK2, 1 µM; read-out: Percent Control
T2 construct: purchased Eurofins DiscoverX
Description: as §1

[1] = Oral CNS pharmacokinetic assessment; format: in vivo, CD1 mice; conditions: male, CD1, brain/plasma, Mouse 40 mg/kg (PO)
Method: Animal experiments were performed at Pharmaron, Inc. and animal use was approved by Pharmaron’s Institutional Animal Care and Use Committee (IACUC) in Pharmaron (Pharmaron IACUC, Protocol #PK-M-07182022, #PK-R-06012022, and #ON-CELL-XEN-06012022) following the guidance of AAALAC. Six- to eight-week-old male Sprague-Dawley rats (approximately 200–300 g) obtained from Si Bei Fu Laboratory Animal Technology Co., six- to eight-week-old male CD1 mice (approximately 20–30 g) obtained from Si Bei Fu Laboratory Animal Technology Co., and six- to eight-week-old female BALB/c nude mice (approximately 20–30 g) obtained from Si Bei Fu Laboratory Animal Technology Co., were used in the pharmacokinetic studies. Six- to eight-week-old female BALB/c nude mice (approximately 18–22 g) obtained from Beijing Anikeeper Biotech Co., Ltd. were used in the intracranial PDX study. […]
Oral CNS pharmacokinetic assessment of 9 was done by oral gavage (formulation: 1% methylcellulose) followed by blood and brain sampling at 7 time points (0.25, 0.5, 1, 2, 4, 8, 24 h post dose) with n = 3 animals per time point (n = 21 total). […] Concentrations of 9 in the plasma and brain samples were determined using LC-MS/MS and WinNonlin 8.3 (Phoenix) was used for pharmacokinetic calculations. […]

AXL = biological target: T3, AXL (Homo sapiens, UniProt P30530); experiment: KINOMEScan; format: binding; conditions: read-out: Percent Control
T3 construct: purchased Eurofins DiscoverX (KINOMEscan)
Description: as §1

[2] = biological target: T4, ABL1(E255K)-phosphorylated (Homo sapiens, UniProt P00519, E255K); experiment: KINOMEScan; format: binding; conditions: read-out: Percent Control
T4 construct: purchased Eurofins DiscoverX
Description: as §1

YSK1 = biological target: T5, YSK1 (Homo sapiens, UniProt O00506); experiment: KINOMEScan; format: binding; conditions: YSK1, 1 µM; read-out: Percent Control
T5 construct: purchased Eurofins DiscoverX (KINOMEScan service)

ASK2 = biological target: T6, ASK2 (Homo sapiens, UniProt O95382); experiment: KINOMEScan; format: binding; conditions: ASK2, 1 µM; read-out: Percent Control
T6 construct: purchased Eurofins DiscoverX (KINOMEscan)

BRAF = biological target: T7, BRAF (Homo sapiens, UniProt P15056); experiment: KINOMEScan; format: binding; conditions: read-out: Percent Control
T7 construct: purchased Eurofins DiscoverX (KINOMEscan)
Description: as §1

ACVR2A = biological target: T8, ACVR2A (Homo sapiens, UniProt P27037); experiment: KINOMEScan; format: binding; conditions: read-out: Percent Control
T8 construct: purchased Eurofins DiscoverX (KINOMEscan)
Description: as §1

EGFRwt = biological target: T9, EGFRwt (Homo sapiens, UniProt P00533); experiment: KINOMEScan; format: binding; conditions: read-out: Percent Control
T9 construct: purchased Eurofins DiscoverX (contract assay)
Description: as §1

BMX = biological target: T10, BMX (Homo sapiens, UniProt P51813); experiment: KINOMEScan; format: binding; conditions: read-out: Percent Control
T10 construct: purchased Eurofins DiscoverX (KINOMEscan)
Description: as §1

[3] = biological target: T11, ABL1(M351T)-phosphorylated (Homo sapiens, UniProt P00519, M351T); experiment: KINOMEScan; format: binding; conditions: read-out: Percent Control
T11 construct: purchased Eurofins DiscoverX
Description: as §1

[4] = biological target: T12, ABL1(F317I)-phosphorylated (Homo sapiens, UniProt P00519, F317I); experiment: KINOMEScan; format: binding; conditions: read-out: Percent Control
T12 construct: purchased Eurofins DiscoverX
Description: as §1

T3 sequence (P30530 26-894): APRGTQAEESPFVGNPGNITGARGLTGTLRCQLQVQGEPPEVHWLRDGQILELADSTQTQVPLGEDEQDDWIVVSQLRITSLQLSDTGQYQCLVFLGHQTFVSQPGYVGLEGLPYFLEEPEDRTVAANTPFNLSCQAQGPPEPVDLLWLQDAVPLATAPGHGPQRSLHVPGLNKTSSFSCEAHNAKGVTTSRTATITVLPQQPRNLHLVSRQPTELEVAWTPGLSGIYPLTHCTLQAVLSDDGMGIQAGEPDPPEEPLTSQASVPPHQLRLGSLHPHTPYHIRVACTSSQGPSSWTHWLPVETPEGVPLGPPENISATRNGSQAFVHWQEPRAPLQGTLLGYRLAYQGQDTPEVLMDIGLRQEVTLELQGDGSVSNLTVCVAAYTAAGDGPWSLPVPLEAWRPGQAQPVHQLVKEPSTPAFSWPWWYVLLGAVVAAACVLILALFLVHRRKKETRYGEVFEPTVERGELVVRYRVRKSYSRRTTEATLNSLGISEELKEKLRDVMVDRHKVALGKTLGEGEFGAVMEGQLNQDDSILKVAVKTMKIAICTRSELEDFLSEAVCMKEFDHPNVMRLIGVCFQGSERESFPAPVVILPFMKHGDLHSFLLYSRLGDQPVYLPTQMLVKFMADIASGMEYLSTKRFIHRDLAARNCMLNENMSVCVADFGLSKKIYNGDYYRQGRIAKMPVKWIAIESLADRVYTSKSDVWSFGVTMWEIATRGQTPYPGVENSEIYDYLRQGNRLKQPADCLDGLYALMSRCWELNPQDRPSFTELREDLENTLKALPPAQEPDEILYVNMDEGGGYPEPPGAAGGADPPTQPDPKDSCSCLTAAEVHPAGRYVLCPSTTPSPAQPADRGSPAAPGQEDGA
T8 sequence (P27037 20-513): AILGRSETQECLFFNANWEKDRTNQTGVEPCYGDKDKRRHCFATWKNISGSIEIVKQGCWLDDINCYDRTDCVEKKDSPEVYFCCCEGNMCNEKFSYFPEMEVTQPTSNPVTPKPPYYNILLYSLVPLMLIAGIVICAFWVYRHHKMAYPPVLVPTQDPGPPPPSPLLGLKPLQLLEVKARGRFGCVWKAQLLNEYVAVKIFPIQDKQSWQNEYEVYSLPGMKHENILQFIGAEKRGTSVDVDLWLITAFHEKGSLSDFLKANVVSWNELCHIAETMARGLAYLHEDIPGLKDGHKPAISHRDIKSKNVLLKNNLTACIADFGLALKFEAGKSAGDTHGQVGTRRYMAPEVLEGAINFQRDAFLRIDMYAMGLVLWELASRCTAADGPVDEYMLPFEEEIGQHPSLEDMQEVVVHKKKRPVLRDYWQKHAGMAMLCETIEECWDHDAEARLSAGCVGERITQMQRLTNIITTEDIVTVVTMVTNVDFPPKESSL
T9 sequence (P00533 25-1210): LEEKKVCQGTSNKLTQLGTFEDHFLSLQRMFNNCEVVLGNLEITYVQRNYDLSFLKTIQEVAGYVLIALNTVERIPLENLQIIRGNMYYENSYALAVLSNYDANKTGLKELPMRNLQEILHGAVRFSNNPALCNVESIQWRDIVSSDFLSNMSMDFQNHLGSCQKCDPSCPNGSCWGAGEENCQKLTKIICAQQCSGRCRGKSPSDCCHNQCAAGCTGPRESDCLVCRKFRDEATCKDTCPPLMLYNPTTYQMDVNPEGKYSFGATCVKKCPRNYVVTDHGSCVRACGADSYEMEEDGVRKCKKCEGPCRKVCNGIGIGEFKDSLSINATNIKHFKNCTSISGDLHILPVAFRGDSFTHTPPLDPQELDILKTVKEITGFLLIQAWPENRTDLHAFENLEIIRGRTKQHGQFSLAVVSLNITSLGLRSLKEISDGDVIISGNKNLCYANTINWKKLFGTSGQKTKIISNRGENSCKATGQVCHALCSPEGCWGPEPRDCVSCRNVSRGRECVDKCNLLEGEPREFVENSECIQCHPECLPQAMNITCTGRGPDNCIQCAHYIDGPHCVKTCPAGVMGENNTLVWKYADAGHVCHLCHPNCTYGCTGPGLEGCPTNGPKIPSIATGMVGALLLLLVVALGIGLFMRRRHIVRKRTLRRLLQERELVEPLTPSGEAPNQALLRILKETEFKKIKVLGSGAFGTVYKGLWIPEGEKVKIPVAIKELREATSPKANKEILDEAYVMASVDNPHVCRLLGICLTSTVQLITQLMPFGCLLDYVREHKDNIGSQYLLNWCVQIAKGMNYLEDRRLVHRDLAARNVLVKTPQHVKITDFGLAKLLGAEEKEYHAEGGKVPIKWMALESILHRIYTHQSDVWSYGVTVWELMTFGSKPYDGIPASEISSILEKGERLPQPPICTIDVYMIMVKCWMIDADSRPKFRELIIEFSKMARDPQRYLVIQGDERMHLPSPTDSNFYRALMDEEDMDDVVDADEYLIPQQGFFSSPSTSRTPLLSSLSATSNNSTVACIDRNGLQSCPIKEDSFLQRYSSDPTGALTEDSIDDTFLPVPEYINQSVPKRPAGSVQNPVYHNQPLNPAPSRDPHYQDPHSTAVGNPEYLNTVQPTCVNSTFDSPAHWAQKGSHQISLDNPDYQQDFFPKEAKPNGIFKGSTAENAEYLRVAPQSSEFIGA
T2 sequence (Q9Y3S1 whole entry): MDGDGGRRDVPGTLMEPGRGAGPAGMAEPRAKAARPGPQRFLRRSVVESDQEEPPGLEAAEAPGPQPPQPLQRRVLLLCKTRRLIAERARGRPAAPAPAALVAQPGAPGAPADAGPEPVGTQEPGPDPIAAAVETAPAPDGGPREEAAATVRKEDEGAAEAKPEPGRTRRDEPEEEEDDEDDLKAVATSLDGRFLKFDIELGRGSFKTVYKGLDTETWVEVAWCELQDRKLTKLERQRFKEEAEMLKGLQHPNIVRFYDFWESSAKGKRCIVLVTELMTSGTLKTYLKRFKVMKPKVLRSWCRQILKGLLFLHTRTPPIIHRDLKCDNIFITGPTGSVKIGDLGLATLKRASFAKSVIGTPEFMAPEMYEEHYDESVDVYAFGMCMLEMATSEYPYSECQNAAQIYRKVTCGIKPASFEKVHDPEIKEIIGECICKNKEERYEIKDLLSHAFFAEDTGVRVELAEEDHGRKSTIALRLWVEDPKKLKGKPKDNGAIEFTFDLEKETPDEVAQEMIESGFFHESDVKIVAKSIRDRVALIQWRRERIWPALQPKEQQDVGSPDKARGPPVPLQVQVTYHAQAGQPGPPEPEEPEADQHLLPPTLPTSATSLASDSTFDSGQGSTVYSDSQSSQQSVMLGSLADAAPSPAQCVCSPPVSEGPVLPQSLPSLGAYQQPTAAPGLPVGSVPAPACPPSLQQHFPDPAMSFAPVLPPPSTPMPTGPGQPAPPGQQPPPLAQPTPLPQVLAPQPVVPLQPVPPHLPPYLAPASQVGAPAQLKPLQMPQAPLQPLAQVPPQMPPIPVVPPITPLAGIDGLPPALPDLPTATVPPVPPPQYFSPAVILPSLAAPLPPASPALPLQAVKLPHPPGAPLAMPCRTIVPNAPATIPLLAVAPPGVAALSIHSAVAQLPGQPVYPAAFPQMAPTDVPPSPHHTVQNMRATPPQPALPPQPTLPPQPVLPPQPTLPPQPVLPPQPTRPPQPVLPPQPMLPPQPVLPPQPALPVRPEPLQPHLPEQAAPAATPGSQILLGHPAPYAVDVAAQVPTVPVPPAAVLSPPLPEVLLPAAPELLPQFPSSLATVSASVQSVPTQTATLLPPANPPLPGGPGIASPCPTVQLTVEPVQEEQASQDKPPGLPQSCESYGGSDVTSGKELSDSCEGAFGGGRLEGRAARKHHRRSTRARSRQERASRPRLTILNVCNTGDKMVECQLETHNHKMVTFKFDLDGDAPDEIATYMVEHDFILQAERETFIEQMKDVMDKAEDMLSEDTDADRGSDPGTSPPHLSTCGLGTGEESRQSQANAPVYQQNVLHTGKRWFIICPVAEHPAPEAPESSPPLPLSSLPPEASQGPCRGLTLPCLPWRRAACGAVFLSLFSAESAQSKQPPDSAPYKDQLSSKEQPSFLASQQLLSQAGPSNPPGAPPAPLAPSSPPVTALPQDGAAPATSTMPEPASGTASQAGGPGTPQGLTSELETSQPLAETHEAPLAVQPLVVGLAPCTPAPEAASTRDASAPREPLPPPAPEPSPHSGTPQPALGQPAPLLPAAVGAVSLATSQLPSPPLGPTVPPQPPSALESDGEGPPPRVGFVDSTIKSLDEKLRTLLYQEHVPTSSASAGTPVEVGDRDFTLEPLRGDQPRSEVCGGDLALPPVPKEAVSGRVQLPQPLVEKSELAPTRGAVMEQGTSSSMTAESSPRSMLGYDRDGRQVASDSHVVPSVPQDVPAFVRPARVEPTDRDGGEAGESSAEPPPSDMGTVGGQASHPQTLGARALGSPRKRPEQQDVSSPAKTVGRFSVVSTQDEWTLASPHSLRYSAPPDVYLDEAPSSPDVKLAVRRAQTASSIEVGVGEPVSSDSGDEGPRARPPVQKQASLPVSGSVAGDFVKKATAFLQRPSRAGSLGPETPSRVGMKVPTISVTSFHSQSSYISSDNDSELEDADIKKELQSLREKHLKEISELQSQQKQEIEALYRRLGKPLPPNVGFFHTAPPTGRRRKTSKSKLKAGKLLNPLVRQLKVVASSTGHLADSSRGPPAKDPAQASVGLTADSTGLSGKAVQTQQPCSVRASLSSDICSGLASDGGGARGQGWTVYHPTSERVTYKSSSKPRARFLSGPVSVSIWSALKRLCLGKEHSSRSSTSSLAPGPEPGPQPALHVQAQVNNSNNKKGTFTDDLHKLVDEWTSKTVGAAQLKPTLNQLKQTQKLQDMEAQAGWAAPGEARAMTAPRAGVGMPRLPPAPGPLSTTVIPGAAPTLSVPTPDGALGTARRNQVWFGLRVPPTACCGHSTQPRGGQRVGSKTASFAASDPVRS

**Q.** Which remaining binding at 1 µM (ERBB2 (HER2)) does the source give for `COc1cc2ncnc(Nc3cccc(Cl)c3F)c2cc1OCCON1CCN(C)CC1` [Compound 9, N-(3-Chloro-2-fluorophenyl)-7-methoxy-6-(2-((4-methylpiperazin-1-yl)oxy)ethoxy)quinazolin-4-amine] here?
**A.** 0.45%

**Q.** What about the “Count (# of wells)” value (TA1535; TA1535+S9, 1.0E-04 M) of the same compound?
**A.** 0

**Q.** And the “Positive Significance (- to +++)” value (TA1535; TA1535+S9, 1.0E-04 M)?
**A.** -

**Q.** What about the “Count (# of wells)” value (TA1535; TA1535+S9, 1.0E-05 M) of the same compound?
**A.** 3

**Q.** And the “Positive Significance (- to +++)” value (TA1535; TA1535+S9, 1.0E-05 M)?
**A.** -

**Q.** And the “Count (# of wells)” value (TA1535; TA1535+S9, 5.0E-05 M)?
**A.** 0

**Q.** And the “Positive Significance (- to +++)” value (TA1535; TA1535+S9, 5.0E-05 M)?
**A.** -

**Q.** What about the “Count (# of wells)” value (TA1535; TA1535+S9, 5.0E-06 M) of the same compound?
**A.** 1

**Q.** What about the “Positive Significance (- to +++)” value (TA1535; TA1535+S9, 5.0E-06 M) of the same compound?
**A.** -

**Q.** What about the “Count (# of wells)” value (TA1535; TA1535-S9, 1.0E-04 M) of the same compound?
**A.** 0

**Q.** What about the “Positive Significance (- to +++)” value (TA1535; TA1535-S9, 1.0E-04 M) of the same compound?
**A.** -

**Q.** What about the “Count (# of wells)” value (TA1535; TA1535-S9, 1.0E-05 M) of the same compound?
**A.** 0

**Q.** What about the “Positive Significance (- to +++)” value (TA1535; TA1535-S9, 1.0E-05 M) of the same compound?
**A.** -

**Q.** What about the “Count (# of wells)” value (TA1535; TA1535-S9, 5.0E-05 M) of the same compound?
**A.** 0

**Q.** And the “Positive Significance (- to +++)” value (TA1535; TA1535-S9, 5.0E-05 M)?
**A.** -

**Q.** And the “Count (# of wells)” value (TA1535; TA1535-S9, 5.0E-06 M)?
**A.** 0

**Q.** And the “Positive Significance (- to +++)” value (TA1535; TA1535-S9, 5.0E-06 M)?
**A.** -

**Q.** What about the remaining binding at 1 µM (WNK2) of the same compound?
**A.** 94%

**Q.** What about the Kp at 24 h ([1]; read-out: Kp brain (AUCinf)) of the same compound?
**A.** 0.77

**Q.** What about the Kp uu at 24 h ([1]; read-out: Kp,uu brain (AUCinf)) of the same compound?
**A.** 0.45

**Q.** What about the remaining binding at 1 µM (AXL) of the same compound?
**A.** 100%

**Q.** What about the remaining binding at 1 µM [2] of the same compound?
**A.** 6.4%

**Q.** What about the remaining binding at 1 µM (YSK1) of the same compound?
**A.** 94%

**Q.** And the remaining binding at 1 µM (ASK2)?
**A.** 85%

**Q.** What about the remaining binding at 1 µM (BRAF) of the same compound?
**A.** 89%

**Q.** What about the remaining binding at 1 µM (ACVR2A) of the same compound?
**A.** 100%

**Q.** What about the remaining binding at 1 µM (EGFRwt) of the same compound?
**A.** 0.3%

**Q.** And the remaining binding at 1 µM (BMX)?
**A.** 93%

**Q.** And the remaining binding at 1 µM [3]?
**A.** 12%

**Q.** And the remaining binding at 1 µM [4]?
**A.** 48%
